The values that follow come from patent US20230295131A1, “INHIBITORS OF RHO-ASSOCIATED COILED-COIL KINASE” (Angion Biomedica Corp., priority 2020, published 2023).

In experiment [1] the target is T1, ROCK2 (Homo sapiens, UniProt O75116).
T1 construct: T7 phage fusion (kinase-tagged phage) or DNA tag for qPCR detection
The experiment can be described thus: ROCK2 kinase binding affinity, DiscoverX KINOMEscan KdELECT. Particulars: for ROCK2 Selectivity: selectivity for ROCK2 over ROCK1 from Kd. As to the method:
(§1) 1. ROCK1 and ROCK2 kinase assays: The ROCK1 and ROCK2 kinase binding affinities of compounds in this disclosure were determined by DiscoverX's KINOMEscan™ KdELECT technology (https://www.discoverx.com/kinomescan-elect-kinase-screening-and-profiling-services): Kinase-tagged T7 phage strains were prepared in an E. coli host derived from the BL21 strain. E. coli were grown to log-phase and infected with T7 phage and incubated with shaking at 32° C. until lysis. The lysates were centrifuged and filtered to remove cell debris. The remaining kinases were produced in HEK-293 cells and subsequently tagged with DNA for qPCR detection. […] The liganded beads were blocked with excess biotin and washed with blocking buffer (SeaBlock (Pierce), 1% BSA, 0.05% Tween 20, 1 mM DTT) to remove unbound ligand and to reduce nonspecific binding. […] Kds were determined using an 11-point 3-fold compound dilution series with three DMSO control points. […] The compounds were then diluted directly into the assays such that the final concentration of DMSO was 0.9%. All reactions performed in polypropylene 384-well plate. Each was a final volume of 0.02 ml. […] The kinase concentration in the eluates was measured by qPCR.

In experiment [2] the target is T2, ROCK1 (Homo sapiens, UniProt Q13464).
T2 construct: T7 phage fusion (kinase-tagged phage) or DNA tag for qPCR detection
T2 sequence (Q13464 whole entry, the tested form may be a part): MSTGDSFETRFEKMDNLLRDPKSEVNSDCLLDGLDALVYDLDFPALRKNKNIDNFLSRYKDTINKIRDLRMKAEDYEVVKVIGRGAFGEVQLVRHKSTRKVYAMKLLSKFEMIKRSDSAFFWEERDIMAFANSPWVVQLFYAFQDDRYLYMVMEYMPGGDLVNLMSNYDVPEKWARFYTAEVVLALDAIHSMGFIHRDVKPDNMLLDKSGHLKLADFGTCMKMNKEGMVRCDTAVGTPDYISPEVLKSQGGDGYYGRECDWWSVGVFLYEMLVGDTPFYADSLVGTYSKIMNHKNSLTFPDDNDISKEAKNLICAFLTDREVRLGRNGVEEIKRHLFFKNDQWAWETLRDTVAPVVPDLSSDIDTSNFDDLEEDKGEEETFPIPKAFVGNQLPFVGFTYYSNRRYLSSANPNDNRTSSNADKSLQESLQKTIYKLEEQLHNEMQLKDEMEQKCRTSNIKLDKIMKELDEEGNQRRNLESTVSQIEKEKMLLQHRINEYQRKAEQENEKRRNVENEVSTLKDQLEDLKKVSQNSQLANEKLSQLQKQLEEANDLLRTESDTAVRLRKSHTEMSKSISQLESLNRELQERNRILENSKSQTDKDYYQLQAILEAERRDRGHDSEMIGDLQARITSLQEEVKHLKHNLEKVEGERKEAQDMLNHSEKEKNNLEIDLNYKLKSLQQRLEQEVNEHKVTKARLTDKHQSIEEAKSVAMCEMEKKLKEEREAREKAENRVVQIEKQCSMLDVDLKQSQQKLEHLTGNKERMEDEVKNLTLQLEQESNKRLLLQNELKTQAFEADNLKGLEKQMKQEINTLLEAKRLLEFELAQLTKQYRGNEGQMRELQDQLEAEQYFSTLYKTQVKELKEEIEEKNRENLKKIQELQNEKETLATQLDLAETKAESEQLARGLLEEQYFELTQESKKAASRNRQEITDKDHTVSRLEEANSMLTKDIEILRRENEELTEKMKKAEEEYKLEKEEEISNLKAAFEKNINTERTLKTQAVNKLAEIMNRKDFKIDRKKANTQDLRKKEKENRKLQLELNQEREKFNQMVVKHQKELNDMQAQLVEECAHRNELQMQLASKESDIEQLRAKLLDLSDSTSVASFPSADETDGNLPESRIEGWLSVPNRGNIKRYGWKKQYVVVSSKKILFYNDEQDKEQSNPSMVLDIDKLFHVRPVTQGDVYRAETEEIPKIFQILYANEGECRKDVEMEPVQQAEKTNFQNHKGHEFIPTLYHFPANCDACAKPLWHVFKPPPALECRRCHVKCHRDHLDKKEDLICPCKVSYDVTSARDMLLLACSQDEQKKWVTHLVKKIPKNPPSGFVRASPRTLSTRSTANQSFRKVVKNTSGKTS
In words: ROCK1 kinase binding affinity, DiscoverX KINOMEscan KdELECT. Particulars: 11-point 3-fold dilution. As to the method:
as §1

Where [3] appears, read: KINOMEscan KdELECT, 11-point 3-fold dilution, read-out: Kd (μM) ROCK2.

Structures are written as SMILES. Where two headings read alike, the source gives them in different places. A value given as a limit tells only on which side of the number the result lay.

T1 sequence (O75116 whole entry, the tested form may be a part): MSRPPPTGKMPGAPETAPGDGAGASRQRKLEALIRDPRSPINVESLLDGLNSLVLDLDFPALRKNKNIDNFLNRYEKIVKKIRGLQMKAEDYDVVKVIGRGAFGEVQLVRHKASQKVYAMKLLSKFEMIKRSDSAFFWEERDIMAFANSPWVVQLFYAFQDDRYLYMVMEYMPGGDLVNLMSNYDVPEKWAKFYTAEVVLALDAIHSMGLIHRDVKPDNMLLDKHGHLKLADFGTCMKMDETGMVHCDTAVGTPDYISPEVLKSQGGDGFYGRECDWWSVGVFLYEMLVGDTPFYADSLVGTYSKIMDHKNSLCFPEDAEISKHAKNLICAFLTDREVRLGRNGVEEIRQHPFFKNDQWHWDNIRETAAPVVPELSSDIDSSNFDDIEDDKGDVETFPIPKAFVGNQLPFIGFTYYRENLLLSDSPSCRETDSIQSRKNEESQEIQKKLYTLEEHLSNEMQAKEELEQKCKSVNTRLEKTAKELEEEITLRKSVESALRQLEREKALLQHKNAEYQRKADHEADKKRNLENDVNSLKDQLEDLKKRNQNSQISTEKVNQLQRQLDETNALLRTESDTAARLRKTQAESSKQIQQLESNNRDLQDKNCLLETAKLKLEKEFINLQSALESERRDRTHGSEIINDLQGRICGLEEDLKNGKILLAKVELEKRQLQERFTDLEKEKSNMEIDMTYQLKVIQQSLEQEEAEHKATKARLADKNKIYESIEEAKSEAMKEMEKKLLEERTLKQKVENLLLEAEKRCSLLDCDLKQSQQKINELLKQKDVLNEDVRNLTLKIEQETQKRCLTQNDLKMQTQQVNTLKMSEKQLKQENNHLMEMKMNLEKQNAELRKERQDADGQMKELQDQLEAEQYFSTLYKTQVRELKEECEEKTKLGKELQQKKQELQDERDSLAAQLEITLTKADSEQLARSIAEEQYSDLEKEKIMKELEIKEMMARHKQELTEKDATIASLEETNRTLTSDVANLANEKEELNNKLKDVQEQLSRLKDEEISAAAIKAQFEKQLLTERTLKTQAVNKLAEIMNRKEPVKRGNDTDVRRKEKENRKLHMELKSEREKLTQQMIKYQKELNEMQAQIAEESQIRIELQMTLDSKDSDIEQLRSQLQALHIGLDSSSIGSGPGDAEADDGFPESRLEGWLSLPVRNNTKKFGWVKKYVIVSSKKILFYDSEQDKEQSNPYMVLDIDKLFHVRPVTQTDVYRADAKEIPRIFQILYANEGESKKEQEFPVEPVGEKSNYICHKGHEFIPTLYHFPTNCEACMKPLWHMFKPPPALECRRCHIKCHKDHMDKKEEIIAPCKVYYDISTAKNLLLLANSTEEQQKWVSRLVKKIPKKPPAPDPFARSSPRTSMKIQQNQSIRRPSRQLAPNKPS

The term Kd denotes the equilibrium constant for the complex coming apart. As for `CN(Cc1ccc(F)cn1)c1nccc(-c2nccc(C#Cc3ccc4[nH]ncc4c3)n2)n1` [Ex. 30, 4-((1H-Indazol-5-yl)ethynyl)-N-((5-fluoropyridin-2-yl)methyl)-N-methyl-[2,4′-bipyrimidin]-2′-amine], the figures for the dissociation constant Kd in experiment [1] (setting [3]) and in experiment [2] were 0.1 to 0.99 µM and 1 to 9.9 µM, respectively. Besides, the “ROCK2 Selectivity” value in experiment [1] is “* (<50-fold selectivity for ROCK2)”.
As for `O[C@H]1CC[C@@H](Nc2nccc(-c3nccc(C#Cc4ccc5[nH]cnc5c4)n3)n2)CC1` [Ex. 95, (1s,4s)-4-((4-((1H-Benzo[d]imidazol-5-yl)ethynyl)-[2,4′-bipyrimidin]-2′-yl)amino)cyclohexanol], in experiment [1], the Kd lay in the range of 0.01 to 0.099 µM and the “ROCK2 Selectivity” value is recorded as “*** (151 to 500-fold selectivity for ROCK2)”. Moreover, in experiment [2], the equilibrium dissociation constant (Kd) lay in the range of 10 to 100 µM.
With `Fc1cccc(F)c1CNc1nccc(-c2nccc(C#Cc3ccc4[nH]ncc4c3)n2)n1` [Ex. 27, 4-((1H-Indazol-5-yl)ethynyl)-N-(2,6-difluorobenzyl)-[2,4′-bipyrimidin]-2′-amine], the dissociation constant (Kd) fell in the range of 0.1 to 0.99 µM in experiment [1] (setting [3]) and 10 to 100 µM in experiment [2]. For the same molecule, the “ROCK2 Selectivity” value in experiment [1] is on record as “** (50 to 150-fold selectivity for ROCK2)”.
The matching figures for `Cc1n[nH]c2ccc(C#Cc3ccnc(-c4ccnc(NCc5ccc(F)cn5)n4)n3)cc12` [Ex. 71, N-((5-Fluoropyridin-2-yl)methyl)-4-((3-methyl-1H-indazol-5-yl)ethynyl)-[2,4′-bipyrimidin]-2′-amine]: 0.1 to 0.99 µM, 0.1 to 0.99 µM and “* (<50-fold selectivity for ROCK2)”.
Turning to `Clc1ccc(CNc2nccc(-c3nccc(C#Cc4ccc5[nH]ncc5c4)n3)n2)nc1` [Ex. 16, 4-((1H-Indazol-5-yl)ethynyl)-N-((5-chloropyridin-2-yl)methyl)-[2,4′-bipyrimidin]-2′-amine], the values for the Kd in experiment [1] (setting [3]) and in experiment [2] were less than 0.01 µM and 0.1 to 0.99 µM, respectively. The “ROCK2 Selectivity” value in experiment [1] was “* (<50-fold selectivity for ROCK2)”.
The matching figures for `Fc1cnc(CNc2nccc(-c3nccc(C#Cc4ccc5[nH]ncc5c4)n3)n2)c(F)c1` [Ex. 38, 4-((1H-Indazol-5-yl)ethynyl)-N-((3,5-difluoropyridin-2-yl)methyl)-[2,4′-bipyrimidin]-2′-amine]: less than 0.01 µM, 0.1 to 0.99 µM and “** (50 to 150-fold selectivity for ROCK2)”.
On to `Fc1cc(CNc2nccc(-c3nccc(C#Cc4ccc5[nH]nc(F)c5c4)n3)n2)ccn1` [Ex. 61, 4-((3-Fluoro-1H-indazol-5-yl)ethynyl)-N-((2-fluoropyridin-4-yl)methyl)-[2,4′-bipyrimidin]-2′-amine], for which the Kd lay in the range of 0.01 to 0.099 µM in experiment [1] (setting [3]) and 10 to 100 µM in experiment [2]. The “ROCK2 Selectivity” value in experiment [1] is “*** (151 to 500-fold selectivity for ROCK2)”.
The matching figures for `O=C(CNc1nccc(-c2nccc(C#Cc3ccc4[nH]ncc4c3)n2)n1)NC12CCC(CC1)C2` [Ex. 2, 2-((4-((1H-Indazol-5-yl)ethynyl)-[2,4′-bipyrimidin]-2′-yl)amino)-N-(bicyclo[2.2.1]heptan-1-yl)acetamide]: less than 0.01 µM, 0.1 to 0.99 µM and “*** (151 to 500-fold selectivity for ROCK2)”.
For the molecule `COC(C)(C)CNc1nccc(-c2nccc(C#Cc3ccc4[nH]ncc4c3)n2)n1` [Ex. 81, 4-((1H-Indazol-5-yl)ethynyl)-N-(2-methoxy-2-methylpropyl)-[2,4′-bipyrimidin]-2′-amine], the values for the Kd in experiment [1] (setting [3]) and in experiment [2] were 0.01 to 0.099 µM and 1 to 9.9 µM, respectively. Moreover, the “ROCK2 Selectivity” value in experiment [1] was “** (50 to 150-fold selectivity for ROCK2)”.
The matching figures for `O[C@H]1CC[C@H](Nc2nccc(-c3nccc(C#Cc4ccc5[nH]ncc5c4)n3)n2)CC1` [Ex. 63, (1r,4r)-4-((4-((1H-Indazol-5-yl)ethynyl)-[2,4′-bipyrimidin]-2′-yl)amino)cyclohexanol]: less than 0.01 µM, 1 to 9.9 µM and “*** (151 to 500-fold selectivity for ROCK2)”.
The matching figures for `FC(F)(F)c1ccc(CNc2nccc(-c3nccc(C#Cc4ccc5[nH]ncc5c4)n3)n2)nc1` [Ex. 48, 4-((1H-Indazol-5-yl)ethynyl)-N-((5-(trifluoromethyl)pyridin-2-yl)methyl)-[2,4′-bipyrimidin]-2′-amine]: less than 0.01 µM, 0.1 to 0.99 µM and “** (50 to 150-fold selectivity for ROCK2)”.
The matching figures for `C(#Cc1ccnc(-c2ccnc(NCC3CCCC3)n2)n1)c1ccc2[nH]ncc2c1` [Ex. 44, 4-((1H-Indazol-5-yl)ethynyl)-N-(cyclopentylmethyl)-[2,4′-bipyrimidin]-2′-amine]: 0.01 to 0.099 µM, 10 to 100 µM and “*** (151 to 500-fold selectivity for ROCK2)”.
With `C[C@H](O)CNc1nccc(-c2nccc(C#Cc3ccc4[nH]ncc4c3)n2)n1` [Ex. 80, (S)-1-((4-((1H-Indazol-5-yl)ethynyl)-[2,4′-bipyrimidin]-2′-yl)amino)propan-2-ol], in experiment [1], the equilibrium dissociation constant (Kd) is 0.1 to 0.99 µM and the “ROCK2 Selectivity” value is “** (50 to 150-fold selectivity for ROCK2)”. Also, in experiment [2], the Kd fell in the range of 1 to 9.9 µM.
In the case of `C(#Cc1ccnc(-c2ccnc(NCC3CCCO3)n2)n1)c1ccc2[nH]ncc2c1` (stereo not drawn) [Ex. 17, 4-((1H-Indazol-5-yl)ethynyl)-N-((tetrahydrofuran-2-yl)methyl)-[2,4′-bipyrimidin]-2′-amine], the Kd in experiment [1] (setting [3]) was less than 0.01 µM; in experiment [2], 0.1 to 0.99 µM. The “ROCK2 Selectivity” value in experiment [1] is “*** (151 to 500-fold selectivity for ROCK2)”.
The matching figures for `CNC(=O)CNc1nccc(-c2nccc(C#Cc3ccc4[nH]ncc4c3)n2)n1` [Ex. 55, 2-((4-((1H-Indazol-5-yl)ethynyl)-[2,4′-bipyrimidin]-2′-yl)amino)-N-methylacetamide]: 0.01 to 0.099 µM, 1 to 9.9 µM and “** (50 to 150-fold selectivity for ROCK2)”.
On to `C(#Cc1ccnc(-c2ccnc(NCc3ncc[nH]3)n2)n1)c1ccc2[nH]ncc2c1` [Ex. 23, N-((1H-Imidazol-2-yl)methyl)-4-((1H-indazol-5-yl)ethynyl)-[2,4′-bipyrimidin]-2′-amine], for which the values for the dissociation constant (Kd) in experiment [1] (setting [3]) and in experiment [2] were 0.01 to 0.099 µM and 1 to 9.9 µM, respectively. The “ROCK2 Selectivity” value in experiment [1] was “** (50 to 150-fold selectivity for ROCK2)”.
The matching figures for `Fc1nccc(Cl)c1CNc1nccc(-c2nccc(C#Cc3ccc4[nH]ncc4c3)n2)n1` [Ex. 64, 4-((1H-Indazol-5-yl)ethynyl)-N-((4-chloro-2-fluoropyridin-3-yl)methyl)-[2,4′-bipyrimidin]-2′-amine]: 0.01 to 0.099 µM, 0.1 to 0.99 µM and “* (<50-fold selectivity for ROCK2)”.
The matching figures for `CN(C)CCNc1nccc(-c2nccc(C#Cc3ccc4[nH]ncc4c3)n2)n1` [Ex. 54, N1-(4-((1H-Indazol-5-yl)ethynyl)-[2,4′-bipyrimidin]-2′-yl)-N2,N2-dimethylethane-1,2-diamine]: 0.1 to 0.99 µM, 1 to 9.9 µM and “* (<50-fold selectivity for ROCK2)”.
The matching figures for `Fc1ccc(CNc2nccc(-c3nccc(C#Cc4ccc5[nH]nc(F)c5c4)n3)n2)nc1` [Ex. 45, 4-((3-Fluoro-1H-indazol-5-yl)ethynyl)-N-((5-fluoropyridin-2-yl)methyl)-[2,4′-bipyrimidin]-2′-amine]: 0.01 to 0.099 µM, 10 to 100 µM and “**** (>500-fold selectivity for ROCK2)”.
For the molecule `CC(Nc1nccc(-c2nccc(C#Cc3ccc4[nH]ncc4c3)n2)n1)C1CCCO1` (stereo not drawn) [Ex. 67, 4-((1H-Indazol-5-yl)ethynyl)-N-(1-(tetrahydrofuran-2-yl)ethyl)-[2,4′-bipyrimidin]-2′-amine], the Kd in experiment [1] (setting [3]) lay within 0.01 to 0.099 µM; in experiment [2] it was 1 to 9.9 µM. Further, the “ROCK2 Selectivity” value in experiment [1] was “* (<50-fold selectivity for ROCK2)”.
For the molecule `Fc1ncccc1CNc1nccc(-c2nccc(C#Cc3ccc4[nH]nc(F)c4c3)n2)n1` [Ex. 43, 4-((3-Fluoro-1H-indazol-5-yl)ethynyl)-N-((2-fluoropyridin-3-yl)methyl)-[2,4′-bipyrimidin]-2′-amine], the figures for the Kd in experiment [1] (setting [3]) and in experiment [2] were 0.01 to 0.099 µM and 10 to 100 µM, respectively. Besides, the “ROCK2 Selectivity” value in experiment [1] is “*** (151 to 500-fold selectivity for ROCK2)”.
For `Cc1cnc(F)c(CNc2nccc(-c3nccc(C#Cc4ccc5[nH]ncc5c4)n3)n2)c1` [Ex. 72, 4-((1H-Indazol-5-yl)ethynyl)-N-((2-fluoro-5-methylpyridin-3-yl)methyl)-[2,4′-bipyrimidin]-2′-amine], the dissociation constant (Kd) in experiment [1] (setting [3]) and in experiment [2] was 10 to 100 µM throughout. Moreover, the “ROCK2 Selectivity” value in experiment [1] is “* (<50-fold selectivity for ROCK2)”.
On to `C(#Cc1ccnc(-c2ccnc(N[C@H]3CCOC3)n2)n1)c1ccc2[nH]ncc2c1` [Ex. 62, (S)-4-((1H-Indazol-5-yl)ethynyl)-N-(tetrahydrofuran-3-yl)-[2,4′-bipyrimidin]-2′-amine], for which the equilibrium dissociation constant (Kd) in experiment [1] (setting [3]) was less than 0.01 µM; in experiment [2] it was 1 to 9.9 µM. In addition, in experiment [1], the “ROCK2 Selectivity” value is reported as “*** (151 to 500-fold selectivity for ROCK2)”.
For `O=c1[nH]cccc1CNc1nccc(-c2nccc(C#Cc3ccc4[nH]ncc4c3)n2)n1` [Ex. 21, 3-(((4-((1H-Indazol-5-yl)ethynyl)-[2,4′-bipyrimidin]-2′-yl)amino)methyl)pyridin-2(1H)-one], the Kd in experiment [1] (setting [3]) lay within 0.01 to 0.099 µM; in experiment [2], 0.1 to 0.99 µM. The “ROCK2 Selectivity” value in experiment [1] was “** (50 to 150-fold selectivity for ROCK2)”.
